According to patent US20050085463A1 (priority 2003, published 2005):
Values joined by “and” are separate entries in the source; they are usually repeats but may differ in a detail not shown here. Identical values can stand only once.

Experiments:
[1] = target: 5-HT6A receptor (Homo sapiens, UniProt P50406); assay: R-SAT inverse agonist assay
[2] = steady state kinetics in humans (ref. 13); cited from earlier work
[3] = target: α2A (Alpha 2A) adrenergic receptor (Homo sapiens, UniProt P08913); assay: R-SAT competitive antagonist assay; details: nr = no significant antagonist or inverse agonist activity up to 1 μM, nr* = nr but significant agonist activity
[4] = target: D3 dopamine receptor (Homo sapiens, UniProt P35462); details: R-SAT; nr = no significant antagonist or inverse agonist activity up to 1 μM; nr* = nr but significant agonist activity
[5] = target: D1 receptors (Homo sapiens, UniProt P21728); assay: Ligand binding screen at 10 μM
[6] = target: D25 receptors (Homo sapiens, UniProt P14416); assay: Ligand binding screen at 10 μM
[7] = target: T1, 5-HT1A receptor (Homo sapiens, UniProt P08908); assay: R-SAT competitive antagonist assay; details: R-SAT; nr = no significant antagonist or inverse agonist activity up to 1 μM; nr* = nr but significant agonist activity
T1 sequence (P08908 1-422): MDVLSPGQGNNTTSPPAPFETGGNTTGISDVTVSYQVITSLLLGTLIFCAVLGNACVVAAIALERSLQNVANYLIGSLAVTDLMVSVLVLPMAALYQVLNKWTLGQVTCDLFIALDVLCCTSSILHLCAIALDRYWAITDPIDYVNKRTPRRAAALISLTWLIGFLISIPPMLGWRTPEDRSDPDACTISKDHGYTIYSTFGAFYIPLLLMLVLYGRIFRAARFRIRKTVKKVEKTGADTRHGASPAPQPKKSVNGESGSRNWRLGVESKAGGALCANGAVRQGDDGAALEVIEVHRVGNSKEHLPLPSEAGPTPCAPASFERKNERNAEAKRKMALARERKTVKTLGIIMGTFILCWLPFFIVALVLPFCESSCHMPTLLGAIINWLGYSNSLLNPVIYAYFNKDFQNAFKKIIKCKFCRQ

[8] = target: H1 histamine receptor (Homo sapiens, UniProt P35367); assay: R-SAT competitive antagonist assay
[9] = target: δ2 receptors (Homo sapiens, UniProt P41143); assay: Ligand binding screen at 10 μM
[10] = target: T2, M2 muscarinic receptor (Homo sapiens, UniProt P08172); assay: R-SAT competitive antagonist assay; format: cell-based; design: expressed in transfected cells; host or cells: NIH/3T3; details: nr = no significant antagonist or inverse agonist activity up to 1 μM, nr* = nr but significant agonist activity
T2 sequence (P08172 1-466): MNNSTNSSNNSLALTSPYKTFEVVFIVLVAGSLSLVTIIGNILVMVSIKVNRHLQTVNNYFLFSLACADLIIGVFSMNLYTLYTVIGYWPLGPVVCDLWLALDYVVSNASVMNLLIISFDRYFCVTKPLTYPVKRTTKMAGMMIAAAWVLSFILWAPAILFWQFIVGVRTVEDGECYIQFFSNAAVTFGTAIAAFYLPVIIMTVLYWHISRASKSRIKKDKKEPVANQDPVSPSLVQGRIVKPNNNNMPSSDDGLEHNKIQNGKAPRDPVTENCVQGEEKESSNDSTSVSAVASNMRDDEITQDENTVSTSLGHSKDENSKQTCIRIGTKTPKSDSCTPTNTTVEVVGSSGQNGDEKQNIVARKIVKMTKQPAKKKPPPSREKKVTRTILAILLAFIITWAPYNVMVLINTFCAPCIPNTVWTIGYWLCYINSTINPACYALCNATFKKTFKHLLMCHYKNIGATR

[11] = target: T2, M2 muscarinic receptor; assay: R-SAT agonist assay
[12] = target: D2 dopamine receptor (Homo sapiens, UniProt P14416); assay: R-SAT competitive antagonist assay
[13] = target: 5-HT7A receptor (Homo sapiens, UniProt P34969); assay: R-SAT inverse agonist assay
[14] = target: M2 receptors (Homo sapiens, UniProt P08172); assay: Ligand binding screen at 10 μM
[15] = test system: α2 receptors; assay: Ligand binding screen at 10 μM
[16] = target: T3, M1 muscarinic receptor (Homo sapiens, UniProt P11229); assay: R-SAT competitive antagonist assay; format: cell-based; design: expressed in transfected cells; host or cells: NIH/3T3; details: nr = no significant antagonist or inverse agonist activity up to 1 μM, nr* = nr but significant agonist activity
T3 sequence (P11229 1-460): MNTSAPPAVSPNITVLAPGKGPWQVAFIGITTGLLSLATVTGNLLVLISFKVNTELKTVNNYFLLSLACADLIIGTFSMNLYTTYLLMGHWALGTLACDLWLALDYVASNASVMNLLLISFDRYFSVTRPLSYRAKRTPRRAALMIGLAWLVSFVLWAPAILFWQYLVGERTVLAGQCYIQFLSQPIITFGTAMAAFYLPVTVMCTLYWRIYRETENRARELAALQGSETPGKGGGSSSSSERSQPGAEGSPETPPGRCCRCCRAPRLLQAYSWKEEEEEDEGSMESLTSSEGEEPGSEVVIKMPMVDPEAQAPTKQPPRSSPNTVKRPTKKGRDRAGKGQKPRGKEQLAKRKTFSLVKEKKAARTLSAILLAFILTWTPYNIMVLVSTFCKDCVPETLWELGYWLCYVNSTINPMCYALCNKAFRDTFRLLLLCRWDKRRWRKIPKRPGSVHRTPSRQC

[17] = target: H1 receptors (Homo sapiens, UniProt P35367); assay: Ligand binding screen at 10 μM
[18] = target: T3, M1 muscarinic receptor; assay: cell-based
[19] = R-SAT, nr = no significant antagonist or inverse agonist activity up to 1 μM
[20] = R-SAT, nr = no significant antagonist or inverse agonist activity up to 1 μM, nr* = nr but significant agonist activity

H1 histamine receptor, sequence (P35367 whole entry): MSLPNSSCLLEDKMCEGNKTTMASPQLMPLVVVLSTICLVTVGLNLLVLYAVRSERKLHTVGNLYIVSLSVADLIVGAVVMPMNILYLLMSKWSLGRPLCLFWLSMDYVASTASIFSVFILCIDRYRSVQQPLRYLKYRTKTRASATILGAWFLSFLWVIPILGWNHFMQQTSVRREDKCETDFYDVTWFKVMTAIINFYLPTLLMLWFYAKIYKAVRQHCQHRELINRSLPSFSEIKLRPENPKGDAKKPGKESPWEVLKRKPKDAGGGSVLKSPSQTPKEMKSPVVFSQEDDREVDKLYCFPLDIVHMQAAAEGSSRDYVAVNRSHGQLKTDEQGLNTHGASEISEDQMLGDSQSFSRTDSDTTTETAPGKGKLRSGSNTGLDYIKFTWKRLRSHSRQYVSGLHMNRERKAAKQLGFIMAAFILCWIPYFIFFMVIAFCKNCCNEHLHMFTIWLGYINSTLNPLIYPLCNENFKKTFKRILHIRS
5-HT7A receptor, sequence (P34969 1-445 isoform P34969-2): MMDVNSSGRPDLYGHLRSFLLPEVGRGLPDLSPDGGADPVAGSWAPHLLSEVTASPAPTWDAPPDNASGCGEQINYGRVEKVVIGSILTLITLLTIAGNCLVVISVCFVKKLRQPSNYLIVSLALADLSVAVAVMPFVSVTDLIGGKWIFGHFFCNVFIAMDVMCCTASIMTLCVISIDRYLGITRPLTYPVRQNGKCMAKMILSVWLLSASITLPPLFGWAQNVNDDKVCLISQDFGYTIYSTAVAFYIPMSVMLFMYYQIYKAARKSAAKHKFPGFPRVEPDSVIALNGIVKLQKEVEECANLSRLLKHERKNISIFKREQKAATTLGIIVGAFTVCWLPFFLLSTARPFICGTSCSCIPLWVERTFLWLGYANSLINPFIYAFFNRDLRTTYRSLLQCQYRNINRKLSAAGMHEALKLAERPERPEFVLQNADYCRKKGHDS
D3 dopamine receptor, sequence (P35462 whole entry): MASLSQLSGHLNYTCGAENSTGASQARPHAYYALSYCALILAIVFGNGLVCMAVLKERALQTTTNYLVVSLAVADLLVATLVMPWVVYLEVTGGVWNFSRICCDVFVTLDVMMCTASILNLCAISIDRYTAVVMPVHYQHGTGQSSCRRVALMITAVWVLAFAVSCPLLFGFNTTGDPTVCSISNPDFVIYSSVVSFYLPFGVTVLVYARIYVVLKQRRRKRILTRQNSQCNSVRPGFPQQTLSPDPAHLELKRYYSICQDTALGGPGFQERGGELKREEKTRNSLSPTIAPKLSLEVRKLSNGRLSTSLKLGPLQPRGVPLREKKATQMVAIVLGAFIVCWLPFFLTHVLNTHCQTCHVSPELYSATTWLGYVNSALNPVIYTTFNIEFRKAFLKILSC
D2 dopamine receptor, sequence (P14416 whole entry): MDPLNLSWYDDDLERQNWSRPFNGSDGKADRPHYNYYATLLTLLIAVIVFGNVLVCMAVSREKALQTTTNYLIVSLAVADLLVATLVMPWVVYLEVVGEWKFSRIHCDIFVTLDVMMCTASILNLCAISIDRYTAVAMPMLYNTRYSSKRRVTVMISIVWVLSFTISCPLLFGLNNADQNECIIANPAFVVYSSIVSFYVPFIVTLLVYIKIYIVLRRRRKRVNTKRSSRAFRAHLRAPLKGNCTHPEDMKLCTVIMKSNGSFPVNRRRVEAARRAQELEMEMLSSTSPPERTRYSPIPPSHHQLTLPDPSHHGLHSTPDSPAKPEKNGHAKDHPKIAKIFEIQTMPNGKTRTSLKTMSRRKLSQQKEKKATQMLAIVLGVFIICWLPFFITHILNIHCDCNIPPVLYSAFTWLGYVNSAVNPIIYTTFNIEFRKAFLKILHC
5-HT6A receptor, sequence (P50406 whole entry): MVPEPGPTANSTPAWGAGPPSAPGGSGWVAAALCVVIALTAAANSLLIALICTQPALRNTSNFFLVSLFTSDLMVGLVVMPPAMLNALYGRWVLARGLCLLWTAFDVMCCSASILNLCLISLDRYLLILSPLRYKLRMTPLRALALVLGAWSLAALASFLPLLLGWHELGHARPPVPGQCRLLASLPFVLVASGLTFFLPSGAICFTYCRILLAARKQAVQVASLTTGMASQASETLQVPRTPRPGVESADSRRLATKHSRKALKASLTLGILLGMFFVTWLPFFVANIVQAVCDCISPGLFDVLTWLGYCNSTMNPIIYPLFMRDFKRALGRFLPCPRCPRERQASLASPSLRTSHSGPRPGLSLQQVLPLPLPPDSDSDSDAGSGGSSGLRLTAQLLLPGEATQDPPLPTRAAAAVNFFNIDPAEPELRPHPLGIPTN
α2A (Alpha 2A) adrenergic receptor, sequence (P08913 whole entry): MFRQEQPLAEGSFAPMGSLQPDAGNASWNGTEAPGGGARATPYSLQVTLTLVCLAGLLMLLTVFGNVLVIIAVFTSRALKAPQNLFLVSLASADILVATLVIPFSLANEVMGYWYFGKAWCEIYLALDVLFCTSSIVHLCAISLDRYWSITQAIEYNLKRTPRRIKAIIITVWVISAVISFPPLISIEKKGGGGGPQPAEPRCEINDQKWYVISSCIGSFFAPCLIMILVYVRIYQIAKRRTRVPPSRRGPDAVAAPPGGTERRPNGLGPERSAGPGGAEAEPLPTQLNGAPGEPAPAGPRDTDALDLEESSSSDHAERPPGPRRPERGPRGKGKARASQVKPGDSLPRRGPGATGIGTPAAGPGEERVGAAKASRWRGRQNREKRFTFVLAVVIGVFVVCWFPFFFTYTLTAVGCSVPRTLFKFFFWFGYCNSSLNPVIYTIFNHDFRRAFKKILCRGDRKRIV
D1 receptors, sequence (P21728 whole entry): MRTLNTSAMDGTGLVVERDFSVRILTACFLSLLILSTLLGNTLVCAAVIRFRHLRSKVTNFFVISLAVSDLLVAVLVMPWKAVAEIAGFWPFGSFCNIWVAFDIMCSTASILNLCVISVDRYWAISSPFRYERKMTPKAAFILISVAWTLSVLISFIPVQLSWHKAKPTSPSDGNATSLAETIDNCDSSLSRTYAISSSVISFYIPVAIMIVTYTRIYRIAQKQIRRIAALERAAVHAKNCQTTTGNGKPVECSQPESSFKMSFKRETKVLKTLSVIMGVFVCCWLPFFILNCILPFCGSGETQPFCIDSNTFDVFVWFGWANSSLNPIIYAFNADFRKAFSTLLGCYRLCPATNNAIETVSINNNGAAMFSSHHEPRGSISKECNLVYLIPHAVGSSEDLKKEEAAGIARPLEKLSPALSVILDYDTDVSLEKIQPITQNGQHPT
H1 receptors, sequence (P35367 whole entry): as the sequence (P35367 whole entry) above
δ2 receptors, sequence (P41143 whole entry): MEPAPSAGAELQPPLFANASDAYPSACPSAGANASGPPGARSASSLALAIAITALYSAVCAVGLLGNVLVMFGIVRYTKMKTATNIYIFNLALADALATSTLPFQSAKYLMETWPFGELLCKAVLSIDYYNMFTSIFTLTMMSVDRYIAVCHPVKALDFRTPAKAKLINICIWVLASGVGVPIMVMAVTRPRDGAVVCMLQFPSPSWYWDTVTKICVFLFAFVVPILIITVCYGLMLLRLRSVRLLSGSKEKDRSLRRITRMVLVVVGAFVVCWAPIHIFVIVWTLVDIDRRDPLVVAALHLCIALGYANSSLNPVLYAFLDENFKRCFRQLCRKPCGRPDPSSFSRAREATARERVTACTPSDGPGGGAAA
D25 receptors, sequence (P14416 1-414 isoform P14416-2): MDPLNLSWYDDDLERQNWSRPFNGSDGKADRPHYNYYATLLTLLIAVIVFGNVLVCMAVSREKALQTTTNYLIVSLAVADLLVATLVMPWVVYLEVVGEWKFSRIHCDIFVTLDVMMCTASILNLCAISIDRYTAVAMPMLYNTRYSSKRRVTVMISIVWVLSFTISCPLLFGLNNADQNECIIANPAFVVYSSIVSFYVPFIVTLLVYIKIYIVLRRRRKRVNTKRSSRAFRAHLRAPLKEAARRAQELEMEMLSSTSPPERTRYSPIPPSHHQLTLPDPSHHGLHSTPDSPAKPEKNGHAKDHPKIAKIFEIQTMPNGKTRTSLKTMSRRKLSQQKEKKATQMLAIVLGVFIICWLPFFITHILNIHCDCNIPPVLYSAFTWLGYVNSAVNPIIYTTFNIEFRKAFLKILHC

For `Clc1ccc2c(c1)N=C(N1CCNCC1)c1ccccc1N2` [NDMC, 8-chloro-11-(1-piperazinyl)-5H-dibenzo [b,e][1,4] diazepine], the EC50 [1] is listed as 126 nM, the “pEC50 5HT6A, inverse agonist” value [1, 19] is listed as 6.9 ± 0.1 and the “share of total serum clozapine concentrations” value [2] is listed as 40-75%. For the same compound, the “pKi α2A, competitive antagonist” value [3] was “nr and nr^”, the “pKi D3, competitive antagonist” value [4] was “nr and nr^” and the inhibition at 10 µM [5] was ≥ 90%. The inhibition at 10 µM [6] was ≥ 90%, the “pKi 5-HT1A, competitive antagonist” value [7] was “nr and nr^1” and the Ki [8] was 6.31 nM. The “pKi H1, competitive antagonist” value [8, 20] was 8.2 ± 0.2, the inhibition at 10 µM [9] was ≥ 90% and the “pKi M2, competitive antagonist” value [10] was “nr*”. For the same compound, the EC50 ([11]; M2 pEC50, R-SAT agonist) was 339 nM and 316 nM, the “M2 Efficacy” value ([11]; R-SAT, relative to carbachol, No response/nr = no agonist activity up to 10 μM) was 106 ± 19% and the Ki [12] was 63.1 nM. The “pKi D2, competitive antagonist” value [12, 20] was 7.2 ± 0.1, the EC50 [13] was 50.1 nM and the “pEC50 5HT7A, inverse agonist” value [13, 19] was 7.3 ± 0.1. For the same compound, the inhibition at 10 µM [14] was ≥ 90%, the “inhibition of binding, α2” value [15] was ≥ 90% and the “pKi M1, competitive antagonist” value [16] was “nr*”. For the same compound, the inhibition at 10 µM [17] was ≥ 90%, the Emax ([18]; CHO, read-out: M1 % Efficacy, PI hydrolysis, relative to carbachol) was 56% and the EC50 ([18]; M1 pEC50, PI hydrolysis, agonist) was 200 nM. The EC50 ([18]; potency, M1 agonist, PI hydrolysis, n=3) was 93 nM.
